Counter-ions that a name gives are not always drawn.
Tested on: recurrent/metastatic breast cancer
Assay: Inventor's previous clinical research, monotherapy of recurrent/metastatic breast cancer, liposome versus ordinary injection
Type: in vivo, human
Details: control group, 14 mg/m^2 every 4 weeks
Protocol: The inventor's previous clinical research included mitoxantrone hydrochloride monotherapy in the treatment of recurrent/metastatic breast cancer. There were 30 cases in the experimental group and the control group respectively. […] The control group was given mitoxantrone hydrochloride injection in 14 mg/m^2, every 4 weeks as a cycle.

`O=C1c2c(O)ccc(O)c2C(=O)c2c(NCCNCCO)ccc(NCCNCCO)c21` [mitoxantrone hydrochloride injection, mitoxantrone hydrochloride] gave an ORR (2/30) of 6.7%, a DCR (9/30) of 30% and a PR (30 cases) of 2 cases.
